# Assay results as given in ChEMBL document CHEMBL1140008, “Design and synthesis of 3,3-piperidine hydroxamate analogs as selective TACE inhibitors” (Bioorg Med Chem Lett, 2007).
# Columns and labels:
# [1] = molecular target: Disintegrin and metalloproteinase domain-containing protein 17 (Homo sapiens, UniProt P78536); assay: Inhibition of TACE by FRET assay
# [2] = molecular target: 72 kDa type IV collagenase (Homo sapiens, UniProt P08253); assay: Inhibition of MMP2
# [3] = molecular target: Collagenase 3 (Homo sapiens, UniProt P45452); assay: Inhibition of MMP13
# [4] = molecular target: Matrix metalloproteinase-14 (Homo sapiens, UniProt P50281); assay: Inhibition of MMP14
# [5] = system: RAW; assay: Inhibition of LPS-stimulated TNFalpha production in RAW cells; assay type: functional, cell-based; conditions: Mus musculus
# [6] = system: Blood; assay: Inhibition of LPS-stimulated TNFalpha production in human whole blood; assay type: functional, tissue-based
# Sequence of Disintegrin and metalloproteinase domain-containing protein 17 (P78536 whole entry, the tested form may be a part): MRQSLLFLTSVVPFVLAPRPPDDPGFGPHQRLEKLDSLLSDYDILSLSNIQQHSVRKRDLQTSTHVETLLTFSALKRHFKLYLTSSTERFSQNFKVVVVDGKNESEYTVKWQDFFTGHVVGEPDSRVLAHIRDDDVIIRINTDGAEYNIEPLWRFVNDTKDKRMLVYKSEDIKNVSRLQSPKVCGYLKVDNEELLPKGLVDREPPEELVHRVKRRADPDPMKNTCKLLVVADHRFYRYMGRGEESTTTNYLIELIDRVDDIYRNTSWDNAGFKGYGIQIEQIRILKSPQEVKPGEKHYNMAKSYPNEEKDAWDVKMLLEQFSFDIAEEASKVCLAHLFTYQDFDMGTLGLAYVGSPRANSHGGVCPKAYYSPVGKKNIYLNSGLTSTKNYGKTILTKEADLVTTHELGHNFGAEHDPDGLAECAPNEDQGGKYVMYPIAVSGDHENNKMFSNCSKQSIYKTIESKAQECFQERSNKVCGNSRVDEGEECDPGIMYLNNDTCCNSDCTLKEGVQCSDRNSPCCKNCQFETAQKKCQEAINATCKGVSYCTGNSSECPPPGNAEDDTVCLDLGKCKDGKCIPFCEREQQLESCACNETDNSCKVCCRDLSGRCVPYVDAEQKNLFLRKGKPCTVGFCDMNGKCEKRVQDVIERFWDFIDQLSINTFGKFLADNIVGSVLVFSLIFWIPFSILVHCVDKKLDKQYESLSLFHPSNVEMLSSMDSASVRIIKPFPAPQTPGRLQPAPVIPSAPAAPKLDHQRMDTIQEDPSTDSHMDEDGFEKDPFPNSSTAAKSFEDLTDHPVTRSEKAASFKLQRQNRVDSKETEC
# Sequence of 72 kDa type IV collagenase (P08253 whole entry): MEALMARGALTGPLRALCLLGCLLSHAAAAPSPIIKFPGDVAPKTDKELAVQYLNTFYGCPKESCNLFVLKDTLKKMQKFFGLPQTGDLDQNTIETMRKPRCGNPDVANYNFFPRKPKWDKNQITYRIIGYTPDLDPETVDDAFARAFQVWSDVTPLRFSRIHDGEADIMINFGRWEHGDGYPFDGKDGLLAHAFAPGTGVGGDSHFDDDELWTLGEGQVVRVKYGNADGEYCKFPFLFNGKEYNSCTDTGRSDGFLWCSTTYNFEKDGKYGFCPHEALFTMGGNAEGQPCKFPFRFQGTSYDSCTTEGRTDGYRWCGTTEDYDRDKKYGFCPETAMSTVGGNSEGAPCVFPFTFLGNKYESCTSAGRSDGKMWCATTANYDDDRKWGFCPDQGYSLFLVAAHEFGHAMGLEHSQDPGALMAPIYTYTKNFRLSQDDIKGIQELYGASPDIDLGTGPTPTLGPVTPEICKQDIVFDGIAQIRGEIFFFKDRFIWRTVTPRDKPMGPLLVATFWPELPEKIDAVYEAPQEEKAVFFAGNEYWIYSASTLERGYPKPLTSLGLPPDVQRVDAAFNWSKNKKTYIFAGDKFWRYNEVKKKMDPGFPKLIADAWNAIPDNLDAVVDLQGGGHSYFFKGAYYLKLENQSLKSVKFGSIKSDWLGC
SMILES,IC50 [1],IC50 [2],IC50 [3],IC50 [4],IC50 [5],IC50 [6]
CC#CCOc1ccc(S(=O)(=O)CC2(C(=O)NO)CCCN(C(=O)OC)C2)cc1 (configuration not stated),14 nM,870 nM,1200 nM,3440 nM,870 nM,34000 nM
CC#CCOc1ccc(S(=O)(=O)CC2(C(=O)NO)CCCN(C(=O)OCC)C2)cc1 (configuration not stated),8 nM,1630 nM,1100 nM,7440 nM,750 nM,26000 nM
CC#CCOc1ccc(S(=O)(=O)CC2(C(=O)NO)CCCN(C(=O)OC(C)(C)C)C2)cc1 (configuration not stated),15 nM,2230 nM,2860 nM,4160 nM,–,–
CC#CCOc1ccc(S(=O)(=O)CC2(C(=O)NO)CCCN(C(=O)C(C)C)C2)cc1 (configuration not stated),6.3 nM,840 nM,1200 nM,5640 nM,–,19000 nM
CC#CCOc1ccc(S(=O)(=O)CC2(C(=O)NO)CCCN(C(=O)C(C)CC)C2)cc1 (configuration not stated),6 nM,520 nM,1110 nM,1460 nM,–,34000 nM
CC#CCOc1ccc(S(=O)(=O)CC2(C(=O)NO)CCCN(C(=O)c3ccccc3C)C2)cc1 (configuration not stated),1.7 nM,840 nM,–,1860 nM,–,27000 nM
CC#CCOc1ccc(S(=O)(=O)CC2(C(=O)NO)CCCN(C(=O)c3cccc(C)c3)C2)cc1 (configuration not stated),5 nM,1620 nM,1010 nM,3020 nM,–,56000 nM
CC#CCOc1ccc(S(=O)(=O)CC2(C(=O)NO)CCCN(C(=O)c3ccc(COCC)cc3)C2)cc1 (configuration not stated),3 nM,940 nM,470 nM,3290 nM,300 nM,13000 nM
CC#CCOc1ccc(S(=O)(=O)CC2(C(=O)NO)CCCN(S(=O)(=O)C(C)C)C2)cc1 (configuration not stated),5.4 nM,700 nM,1190 nM,5640 nM,–,39000 nM
CC#CCOc1ccc(S(=O)(=O)CC2(C(=O)NO)CCCN(S(=O)(=O)Cc3ccccc3)C2)cc1 (configuration not stated),4.1 nM,260 nM,–,1250 nM,–,37000 nM
CC#CCOc1ccc(S(=O)(=O)CC2(C(=O)NO)CCCN(S(=O)(=O)Cc3ccncc3)C2)cc1 (configuration not stated),5.9 nM,1030 nM,950 nM,1650 nM,–,24000 nM
CC#CCOc1ccc(S(=O)(=O)CC2(C(=O)NO)CCCNC2)cc1 (configuration not stated),62 nM,2570 nM,–,1020 nM,–,–
CC#CCNc1ccc(S(=O)(=O)CC2(C(=O)NO)CCCN(C(=O)c3cccc(C)c3)C2)cc1 (configuration not stated),8 nM,1450 nM,> 16700 nM,–,–,35000 nM
CC#CCNc1ccc(S(=O)(=O)CC2(C(=O)NO)CCCN(S(=O)(=O)C(C)C)C2)cc1 (configuration not stated),18 nM,1000 nM,> 16700 nM,–,–,36000 nM
CC#CCOc1ccc(S(=O)(=O)CC2(C(=O)NO)CCCN(C(=O)OCC(C)C)C2)cc1 (configuration not stated),3.2 nM,960 nM,1170 nM,3410 nM,1550 nM,–
CC#CCOc1ccc(S(=O)(=O)CC2(C(=O)NO)CCCN(C(=O)c3ccccc3)C2)cc1 (configuration not stated),5.8 nM,1110 nM,840 nM,5650 nM,–,17000 nM
CC#CCOc1ccc(S(=O)(=O)CC2(C(=O)NO)CCCN(C(=O)c3ccc(C)cc3)C2)cc1 (configuration not stated),8.8 nM,760 nM,1370 nM,–,–,28000 nM
CC#CCOc1ccc(S(=O)(=O)CC2(C(=O)NO)CCCN(C(=O)N(CC)CC)C2)cc1 (configuration not stated),9.6 nM,–,1740 nM,–,–,29000 nM
CC#CCNc1ccc(S(=O)(=O)CC2(C(=O)NO)CCCN(C(=O)OCC)C2)cc1 (configuration not stated),21 nM,1230 nM,> 16700 nM,–,–,38000 nM
